In a melting point compilation (Tetko et al.; mined from patent text by program, amines drawn as free bases though some values may be those of a salt) one finds melting point data, which are given here for 90 compounds.

Some results are limits rather than exact numbers.

The melting point is the temperature of the solid-liquid transition. Consider `O=C(NCCc1nc(-c2ccncn2)cc(=O)[nH]1)OCc1ccccc1`, for which the melting point fell in the range of 252 to 254 °C.
The figure for `CN1C(=O)N2CCOC2(c2ccccc2)c2cc([N+](=O)[O-])ccc21` (stereo not given) is 136 °C; for `COc1ccc(C(=O)Nc2ccc3c(c2)CCCC3=O)cc1` it is 163 to 166 °C.
In turn, `COc1ccc(C#N)nc1C` had a melting point of 114 to 116 °C.
The figure for `CCCn1c(N)cc(=O)n1-c1ccccc1` is 183 to 185 °C.
Take `CC1Oc2ccccc2CC1NNc1ncnc2c1ncn2C1OC(CO)C(O)C1O` (stereo not given): the melting point lay in the range of 90 to 92 °C.
The figure for `COc1ccc(OC2CN(S(=O)(=O)c3ccc(C)cc3)CCc3ccccc32)cc1` (stereo not given) is 84 to 85 °C.
Regarding `CC[C@@H](O)C1(c2onc(-c3ccc(O)cc3)c2-c2ccccc2)CC1`, the melting point lay within 163 to 164 °C.
The figure for `N=C(N)Nc1ccc(C(=O)Nc2cccc3cccnc23)cc1` is 271 to 273 °C; for `CCn1cc(C(=O)O)c(=O)c2cc(F)c(N3CCNC(c4cc5cc(Cl)ccc5o4)C3)cc21` (stereo not given) it is 262 to 263 °C.
The figure for `COc1cc2c(c(OC(C)=O)c1)C1CCC3(C)C(OC(=O)C(F)(F)F)CCC3C1CC2` (stereo not given) is 137 to 138 °C; for `CC(C)(C=O)CN1CCN(CC(C)(C)C=O)C1=O` it is 78 to 80 °C.
Regarding `CC1(C)Oc2cc(N)c([N+](=O)[O-])cc2[C@@H](N2CCCC2=O)[C@@H]1O` (relative stereo), the melting point was in the range of 310 to 313 °C.
`O=c1[nH]c2cc([N+](=O)[O-])cnc2n1-c1ccc2c(c1)OCO2` yielded a melting point of 224 to 225 °C.
Consider `CN(C)C=Nc1c(Cl)cc(N=Cc2cc(Cl)cc(Cl)c2)cc1Cl`, for which the melting point was 194 to 195 °C.
As for `Cc1ccc(C)c2c1OC(=O)C2c1ccc(C(C)C)cc1` (stereo not given), the melting point was in the range of 107 to 109 °C.
Regarding `CN(C)C(=S)SCn1c(Br)c(Br)c(S(=O)(=O)C(F)(F)F)c1-c1ccc(Cl)cc1`, the melting point is 185 to 187 °C.
In the case of `Fc1ccc2[nH]c(C3=Cc4ccccc4C3)cc2c1` it was 272 to 275 °C; in that of `CCc1ccccc1NC=C1C(=O)N(c2cccc(NC(=O)OC)c2)N=C1C`, 229 °C; in that of `CC(C)(C)OC(=O)N1CCC(Oc2cccc3[nH]ccc23)C1` (stereo not given), 164 to 165 °C.
The figure for `COc1cnc(N2CCN(c3ccc(-n4c(C)n[nH]c4=O)cc3)CC2)nc1` is above 300 °C; for `CCc1nn(Cc2nccn2C)c2c(=O)[nH]c(-c3cc(S(C)(=O)=O)ccc3OCC(C)C)nc12` it is 253 to 254 °C; for `Cn1nncc1COc1nn2c(-c3ccccc3)nnc2cc1-c1ccccc1` it is 190 to 193 °C.
The figure for `Cn1c(=O)c(Cl)nc2ccccc21` is 124 to 130 °C; for `NS(=O)(=O)c1ccc(-c2[nH]c3ccccc3c2-c2ccccc2)cc1` it is 231 to 232 °C.
For the compound `O=[N+]([O-])c1ccc(CCS(=O)(=O)NCc2ccccc2)cc1`, the melting point was 125 to 127 °C.
The figure for `CCSc1ncn(-c2ccc(O)cc2)n1` is 170 °C.
The figure for `CCCC1(C)C(=O)N(CC(=O)Nc2c(C(C)C)cccc2C(C)C)C(=O)N1c1ccc(C)cc1` (stereo not given) is 186 °C; for `FC(F)(F)Oc1ccc2nc(COc3ccccc3)[nH]c2c1` it is 65 to 66 °C; for `COc1cccc2c(CN3CC=C(/C=C/c4ccccc4)CC3)coc12` it is 152 to 153 °C.
The figure for `Cc1cc(C(=O)O)c(C)c2c1S(=O)(=O)CCC2(C)C` is 209 °C; for `Cc1ccc2cc(-c3ccc(F)cc3F)ccc2n1` it is 86 °C; for `O=C(Nc1cccc(Oc2ccccn2)c1)c1ccn2c1CSC2c1cccnc1` (stereo not given) it is 132 °C.
Compound `CCC(=O)C1c2cccc(O)c2C(=O)c2c(OC(=O)C(C)C)cccc21` (stereo not given) returned a melting point of 111 °C.
Consider `COc1cc(C)nc(NC(=O)NS(=O)(=O)c2cccc3c2OS(=O)(=O)C(C)C3)n1` (stereo not given), for which the melting point lay within 215 to 218 °C.
In turn, `COc1ccc(/C(C)=C/c2ccc(CO)cc2)cc1C(C)(C)C` came in with a melting point of 88 to 90 °C.
In the case of `Cc1oc(-c2ccccc2)nc1CCOc1ccc(C=CC#N)cc1` it was 112 to 113 °C; in that of `COC(=O)OC(C)OC1=C(C(=O)Nc2ccccn2)N(C)S(=O)(=O)c2ccccc21` (stereo not given), 150 to 151 °C.
With `CCOC(=O)[C@H](O)[C@@H](NC(=O)OC(C)(C)C)c1ccc(C)cc1`, the melting point is 130 °C.
Take `COc1ccc(-c2nc3c(o2)C(=O)c2ccccc2C3=O)cc1`: the melting point was above 260 °C.
Compound `CN1C(=O)N(c2cc(Cl)cc(Cl)c2)C(=O)[C@]12CN(Cc1ccccc1)C[C@H]2c1ccc(C#N)cc1` (relative stereo) yielded a melting point of 164 °C.
The figure for `CN(Cc1ccccc1)C(=O)/C=C/c1cc(Cl)cnc1N` is 106 to 109 °C; for `O=C1CCC(N2Cc3cc(CNC(=O)NC4CCCCC4)ccc3C2=O)C(=O)N1` (stereo not given) it is 265 to 267 °C; for `CCOC(=O)C1CC(=O)NN1c1ncc(Cl)cc1Cl` (stereo not given) it is 105 to 108 °C.
Regarding `O=[N+]([O-])c1ccc2[nH]cc(C3=CCN(Cc4ccccc4)CC3)c2c1`, the melting point was 168 to 170 °C.
In the case of `CCN(CC)C(=O)c1ccc2cc(C(=O)O)ccc2c1` it was 122 to 124 °C; in that of `CN1CCN(C(=O)OC2C3=C(SCCS3)C(=O)N2c2ccc3c(Cl)ccnc3n2)CC1` (stereo not given), 240 °C.
The figure for `CCCn1nc(-c2c(-c3ccccc3)nn3ccc(OC)cc23)ccc1=O` is 174 °C; for `COc1cc2nc(N3CCN(c4nc5ccccc5o4)CC3)nc(N)c2cc1OC` it is above 250 °C.
In the case of `CC1CCC2(C)C(=CCC3C4CC(O)C(=O)C4(C)CCC32)C1` (stereo not given) it was 166 to 168 °C; in that of `Cc1nn(CC(F)(F)F)c(C(=O)O)c1[N+](=O)[O-]`, 135 to 138 °C.
Consider `Fc1ccc(C#Cc2nccs2)cc1`, for which the melting point lay within 78 to 79 °C.
In the case of `CS(=O)(=O)c1ccc(Br)cc1Br` it was 124 to 126 °C.
Compound `CCOC(=O)/C=C/c1ccc(OC(C)C)nc1Oc1ccc(Cl)cc1Cl` showed a melting point of 92 to 93 °C.
As to `C=C(C)C(=O)NCc1ccc(S(=O)(=O)ON=C2c3ccccc3-c3ccccc32)cc1`, the melting point was 187 to 188 °C.
The figure for `Cc1nn(-c2cccc(N)c2)c2c1C(=O)CC(C)(C)C2` is 131 to 132 °C; for `CCOC(=O)c1c(-c2ccc(F)cc2)cc(-c2cccs2)nc1C(C)C` it is 114 to 115 °C; for `O=Cc1ccc(F)cc1-c1noc2ccc(F)cc12` it is 165 to 166 °C.
`Cc1cccnc1-c1cc2cccnc2c(=O)[nH]1` gave a melting point of 225 to 227 °C.
In the case of `CCOC(=O)Nc1cc(C)cc(Nc2c3cccc(C)c3nc3c(C(=O)NCCN(C)C)cccc23)c1` it was 263 to 264 °C; in that of `CC(=O)NCCn1ccc2c1-c1c(Cl)cccc1CC2`, 146 to 147 °C.
In the case of `C[C@@H](O)c1nccc(N2CCN(Cc3ccccn3)CC2)n1` it was 68 to 70 °C; in that of `CCn1nc(NC(=O)NS(=O)(=O)c2ccccc2C(=O)OC)nc1SC`, 188 to 191 °C.
For the compound `COc1cc(OCCOCc2ccccc2)cc2nc(-c3ccncc3)[nH]c(=O)c12`, the melting point is 228 to 230 °C.
In the case of `CC(=O)OCC1c2ccccc2-c2c1c1ccccc1c1ccccc21` (stereo not given) it was 135 to 136 °C; in that of `NC(=O)NN=Cc1c(O)c(O)cc2ccccc12`, 210 to 215 °C.
For the compound `C[Si](C)(C)OCCNc1ccc(NCCO[Si](C)(C)C)c2c1C(=O)c1ccccc1C2=O`, the melting point was in the range of 123 to 126 °C.
The figure for `CCOC(=O)C(C#N)CCCCCCc1ccc(Cl)cc1` (stereo not given) is 121 to 122 °C; for `CC(=O)C(O)C1OC(n2cc(Br)c(=O)[nH]c2=O)CC1(O)C(C)=O` (stereo not given) it is 116 to 120 °C.
`COC(=O)c1ccc(-c2nc(COc3ccc(COc4nn(-c5ccccc5)cc4C=O)cc3OC)c(C)o2)cc1` had a melting point of 190 to 191 °C.
The figure for `COc1nc(NC(=O)NS(=O)(=O)c2csc3ccccc23)nc(OC)n1` is 152 °C; for `CC(O)C(CCCc1ccccc1)n1cnc(C(N)=O)c1N` (stereo not given) it is 132 °C; for `CCC[C@H]1CC[C@H](c2ncc(C(=O)O)cn2)CC1` it is 184 to 186 °C.
In the case of `COC(=O)Nc1c(C(=O)OC)[nH]c2c(C)ccc(C)c12` it was 184 to 185 °C.
In the case of `Nc1c(I)c(C(F)(F)F)nn1-c1c(Cl)cc(C(F)(F)F)cc1Cl` it was 126 °C.
As for `O=C(O)c1ccc(CCCCCc2ccccc2)cc1`, the melting point was in the range of 80 to 80.5 °C.
In the case of `CCOCc1nc2nc(O)cnc2c(=O)[nH]1` it was 255 to 256 °C; in that of `COC(=O)CC(CSc1nc2ccccc2s1)C(=O)OC` (stereo not given), 46 to 47 °C.
In the case of `CN1C(=O)C(C#N)(c2ccc(OCC(O)CNC(C)(C)C)cc2)Sc2ccccc21` (stereo not given) it was 160 °C; in that of `CC(=O)Nc1ccc(OC2SCC(OC(C)=O)C(OC(C)=O)C2OC(C)=O)cn1` (stereo not given), 132 to 133 °C.
In the case of `CN(C)CCC1CCCCN1C(=O)N1c2ccccc2C(=O)Nc2cccnc21` (stereo not given) it was 188 to 190 °C; in that of `COc1cc2c(cc1OCc1ccccc1)CCN(Cc1cc(OC)c(OC)c(OC)c1)C2`, 144 to 145 °C.
Compound `CCOC(=O)C1=C(COCCO)NC(C)=C(C(=O)OC)C1c1cccc(Cl)c1Cl` (stereo not given) registered a melting point of 120 to 121 °C.
Regarding `COc1ccc(C2CSc3ccccc3N(CCCl)C2=O)cc1` (stereo not given), the melting point worked out at 70 °C.
For the compound `COC(=O)c1cc(F)c(F)c2ccc(C)nc12`, the melting point lay in the range of 99 to 101 °C.
As for `CCC1(O)C(C)=CC(=O)N1Cc1ccccc1` (stereo not given), the melting point lay within 129 to 132 °C.
Consider `CNC#CCC1=Cc2ccccc2Sc2ccc(Cl)cc21`, for which the melting point fell in the range of 92 to 94 °C.
In the case of `CCCCc1oc2ccccc2c1/C=N/OCCCOc1ccc(CC(=O)O)cc1` it was 181 to 182 °C.
As to `O=C1c2ccccc2CN1c1ccccc1CCN1CCN(c2nsc3ccccc23)CC1`, the melting point was found to be 208 °C.
The figure for `O=C1CCCCN1S(=O)(=O)c1ccc(N2CCCCC2)cc1` is 140 to 145 °C.
